Data: ChEMBL document CHEMBL2057103, “Synthesis and biological activity of novel bifunctional isoxazolidinyl polycyclic aromatic hydrocarbons” (Bioorg Med Chem, 2012)
Calls of active or inactive are those of the source. No cut-off for these calls is given here.

Key:
Nucleic Acid [1] = experiment: Binding affinity to Escherichia coli phiX174 RF1 DNA poly-d(G-C)2 fragment assessed as DNA unwinding in presence of topoisomerase 1 after 30 mins by electrophoresis; format: nucleic-acid assay
MOLT-3 = experiment: Cytotoxicity against human MOLT3 cells after 20 hrs by MTS assay; format: functional, cell-based; conditions: MOLT-3, 20 h
Vero = experiment: Cytotoxicity against african green monkey Vero cells after 20 hrs by MTS assay; format: cell-based; conditions: Chlorocebus sabaeus
HeLa = experiment: Cytotoxicity against human HeLa cells after 20 hrs by MTS assay; format: functional, cell-based
U-937 = experiment: Cytotoxicity against human U937 cells after 20 hrs by MTS assay; format: functional, cell-based; conditions: U-937, 20 h
THP-1 = experiment: Cytotoxicity against human THP1 cells after 20 hrs by MTS assay; format: functional, cell-based; conditions: THP-1, 20 h
A549 = experiment: Cytotoxicity against human A549 cells after 20 hrs by SRB assay; format: functional, cell-based; conditions: A549, 20 h
Nucleic Acid [2] = experiment: Binding affinity to Escherichia coli phiX174 RF1 DNA poly GC fragment assessed as DNA unwinding in presence of topoisomerase 1 after 30 mins by electrophoresis; format: nucleic-acid assay

SMILES	Activity (Nucleic Acid [1])	IC50 (MOLT-3)	IC50 (Vero)	IC50 (HeLa)	IC50 (U-937)	IC50 (THP-1)	IC50 (A549)	Activity (Nucleic Acid [2])
OC[C@@H]1C[C@H](c2ccc3ccc4cccc5ccc2c3c45)N(Cc2ccccc2O)O1	Active							
OC[C@H]1C[C@H](c2ccc3ccc4cccc5ccc2c3c45)N(Cc2ccccc2O)O1 (racemic)		13 µM	103 µM	11 µM	88 µM	15 µM	9 µM	
OC[C@@H]1C[C@H](c2ccc3ccc4cccc5ccc2c3c45)N(Cc2ccccc2O)O1 (racemic) [listing 1 of 2 here]								Active
OC[C@@H]1C[C@H](c2ccc3ccc4cccc5ccc2c3c45)N(Cc2ccccc2O)O1 (racemic) [listing 2 of 2 here]		5 µM	37 µM	4 µM	32 µM	7 µM	2 µM	
